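In this assay, cells in 96-well plates receive the compound at five concentrations for 48 hours. Endpoints are linearly interpolated between the surrounding concentrations. The concentration for 50% growth inhibition is given as GI50. TGI: total growth inhibition.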
Columns and labels:
Test in all cases: NCI-60 cell line screen, 48 h
[1] = system: IGROV1 ovarian
[2] = system: M14 melanoma
[3] = system: SK-OV-3 ovarian
[4] = system: HS 578T breast
[5] = system: UACC-62 melanoma
[6] = system: SW-620 colon
[7] = system: NCI-H522 lung
[8] = system: LOX IMVI melanoma
[9] = system: SNB-19 CNS
[10] = system: 786-0 renal
[11] = system: SK-MEL-28 melanoma
[12] = system: RPMI-8226 leukemia
[13] = system: EKVX NSCLC
[14] = system: OVCAR-3 ovarian
[15] = system: RXF 393 renal
[16] = system: CAKI-1 renal
[17] = system: SK-MEL-5 melanoma
[18] = system: SR leukemia
[19] = system: MALME-3M melanoma
[20] = system: NCI-H23 lung
[21] = system: HOP-62 NSCLC
[22] = system: A498 renal
[23] = system: U251 CNS
[24] = system: TK-10 renal
[25] = system: SF-539 CNS
[26] = system: SNB-75 CNS
[27] = system: SF-268 CNS
[28] = system: DU-145 prostate
[29] = system: BT-549 breast
[30] = system: MDA-MB-435
[31] = system: NCI-H226 lung
[32] = system: COLO 205 colon
[33] = system: CCRF-CEM leukemia
[34] = system: T-47D breast
[35] = system: HL-60(TB) leukemia
[36] = system: HCT-15 colon
[37] = system: ACHN renal
[38] = system: NCI/ADR-RES ovarian
[39] = system: SN12C renal
[40] = system: A549 NSCLC
[41] = system: HT29 colon
[42] = system: K-562 leukemia
[43] = system: HOP-92 NSCLC
[44] = system: UO-31 renal
[45] = system: SF-295 CNS
[46] = system: UACC-257 melanoma
[47] = system: KM12 colon
[48] = system: NCI-H460 lung
[49] = system: MCF7 breast
[50] = system: HCC-2998 colon
[51] = system: OVCAR-5 ovarian
[52] = system: MOLT-4 leukemia
[53] = system: OVCAR-8 ovarian
[54] = system: SK-MEL-2 melanoma
[55] = system: MDA-MB-231 breast
[56] = system: OVCAR-4 ovarian
[57] = system: PC-3 prostate
[58] = system: HCT-116 colon

## COc1ccc(/C=C/C(=O)c2cc3c(N)c(C(=O)Nc4cccc(Cl)c4C)sc3nc2C)cc1
[1]
  GI50: 0.251 µM
  TGI: > 50 µM
[2]
  GI50: 0.146 µM
  TGI: > 50 µM
[3]
  GI50: 0.3 µM
  TGI: > 50 µM
[4]
  GI50: 0.173 µM
  TGI: > 50 µM
[5]
  GI50: 0.267 µM
  TGI: > 50 µM
[6]
  GI50: 0.219 µM
  TGI: > 50 µM
[7]
  GI50: 0.126 µM
[8]
  GI50: 0.243 µM
  TGI: 1.25 µM
[9]
  GI50: 0.262 µM
  TGI: > 50 µM
[10]
  GI50: 0.411 µM
  TGI: > 13.6 µM
[11]
  GI50: 6.1 µM
  TGI: > 50 µM
[12]
  GI50: 0.187 µM
  TGI: 1.49 µM
[13]
  GI50: 0.384 µM
  TGI: > 50 µM
[14]
  GI50: 0.16 µM
  TGI: 0.842 µM
[15]
  GI50: 0.102 µM
  TGI: 0.324 µM
[16]
  GI50: 0.284 µM
  TGI: > 26.7 µM
[17]
  GI50: 0.192 µM
  TGI: 0.881 µM
[18]
  GI50: 0.196 µM
  TGI: > 50 µM
[19]
  GI50: 1.25 µM
  TGI: > 50 µM
[20]
  GI50: 0.206 µM
[21]
  GI50: 0.288 µM
  TGI: > 50 µM
[22]
  GI50: 0.174 µM
  TGI: 0.781 µM
[23]
  GI50: 0.201 µM
  TGI: 4.36 µM
[24]
  GI50: 0.965 µM
  TGI: > 50 µM
[25]
  GI50: 0.122 µM
  TGI: 0.324 µM
[26]
  GI50: 0.147 µM
[27]
  GI50: 0.68 µM
  TGI: > 50 µM
[28]
  GI50: 0.218 µM
  TGI: > 50 µM
[29]
  GI50: 0.606 µM
  TGI: 4.25 µM
[30]
  GI50: 0.0908 µM
  TGI: 0.258 µM
[31]
  GI50: 0.372 µM
  TGI: 4.75 µM
[32]
  GI50: 0.169 µM
  TGI: 0.751 µM
[33]
  GI50: 0.205 µM
  TGI: > 35.3 µM
[34]
  GI50: 0.291 µM
  TGI: > 50 µM
[35]
  GI50: 0.14 µM
  TGI: 0.46 µM
[36]
  GI50: 0.185 µM
  TGI: > 50 µM
[37]
  GI50: 0.33 µM
  TGI: > 50 µM
[38]
  GI50: 0.127 µM
  TGI: 0.381 µM
[39]
  GI50: 0.362 µM
  TGI: > 50 µM
[40]
  GI50: 0.261 µM
  TGI: > 50 µM
[41]
  GI50: 0.17 µM
  TGI: > 50 µM
[42]
  GI50: 0.181 µM
  TGI: > 50 µM
[43]
  GI50: 0.876 µM
  TGI: 10.6 µM
[44]
  GI50: 0.406 µM
  TGI: > 25.6 µM
[45]
  GI50: 0.295 µM
  TGI: > 50 µM
[46]
  GI50: 6 µM
  TGI: > 50 µM
[47]
  GI50: 0.214 µM
  TGI: 6.82 µM
[48]
  GI50: 0.19 µM
  TGI: 5.04 µM
[49]
  GI50: 0.196 µM
  TGI: > 50 µM
[50]
  GI50: 0.35 µM
  TGI: 2.92 µM
[51]
  GI50: 0.35 µM
  TGI: > 50 µM
[52]
  GI50: 0.312 µM
  TGI: > 50 µM
[53]
  GI50: 0.244 µM
  TGI: > 50 µM
[54]
  GI50: 0.389 µM
  TGI: > 50 µM
[55]
  GI50: 0.327 µM
  TGI: > 50 µM
[56]
  GI50: 0.732 µM
  TGI: > 50 µM
[57]
  GI50: 0.209 µM
  TGI: > 50 µM
[58]
  GI50: 0.188 µM
